{"source": "patent US20240006031A1", "about": "“PHYSIOLOGICALLY-BASED PHARM[…] MODEL” (CHA UNIVERSITY INDUSTRY-ACADEMIC COOPERATION FOUNDATION, priority 2020, published 2024)", "key": {"[1]": {"assay": "PFHxS standard exposure calculation and risk assessment using human PBPK core model", "settings": "standard exposure 9.7 μg/kg/day", "excerpt": "The final parameters were used to calculate the correlation between the mean blood concentration at steady state and the external dose during repeated exposure to PFHxS. Specifically, using a human PBPK model constructed using human physiological parameters and substance-intrinsic parameters, a dose range was simulated and set, and the correlations described above were derived using regression analysis.\nNext, the interspecies uncertainty factor (UFA) was applied to calculate the steady-state Caverage,human in humans. Specifically, the PFHxS PODhuman in the human body was calculated by using the correlation equation between the average blood concentration (Caverage) and the external dose during repeated exposure to PFHxS from which Caverage,human was derived. Next, the intraspecies uncertainty factor (UFH) was applied to the PODhuman to finalize the PFHxS standard exposure in the human body.\nThe PFHxS reference standard dose for external dose to PFHxS was used to derive the margin of safety (MoS) of PFHxS for men and women. Specifically, the blood PFHxS concentrations of men in Siheung (2.29 ng/mL) and women in Daegu (1.75 ng/mL), which are highly exposed to PFHxS, were substituted into the above correlation equation between the average blood concentration (Caverage) and the external dose to calculate the external dose."}, "[2]": {"assay": "Internal dose of PFHxS from rat model Caverage,rat at NOAEL with uncertainty factors", "set-up": "species or system human", "settings": "versus internal dose 412.7 ng/mL", "experimental": "First, to obtain the internal dose of PFHxS, the UFA was applied to the rat model by finding the Caverage,rat resulting from repeated exposure to NOAEL.\nAs a result, BEPOD was calculated as 4127.4 ng/mL."}, "[3]": {"settings": "cited from earlier work"}}, "note": "Like-named read-outs stand apart in the source and are kept apart here."}
{"smiles": "O=S(=O)(O)C(F)(F)C(F)(F)C(F)(F)C(F)(F)C(F)(F)C(F)(F)F", "note": "[PFHxS]", "values": [{"measurement": "margin of safety (MoS)", "setting": "[1]; men (Siheung, blood PFHxS 2.29 ng/mL)", "result": 180.3}, {"measurement": "margin of safety (MoS)", "setting": "[1]; women (Daegu, blood PFHxS 1.75 ng/mL)", "result": 235.9}, {"measurement": "actual blood levels in Koreans compared with calculated internal dose", "setting": "[2]", "result": "in the safe zone"}, {"measurement": "blood PFHxS concentration", "setting": "[3]; men in Daegu", "result": 2.19, "unit": "ng/mL"}, {"measurement": "blood PFHxS concentration", "setting": "[3]; men in Siheung", "result": 2.29, "unit": "ng/mL"}, {"measurement": "blood PFHxS concentration", "setting": "[3]; women in Daegu", "result": 1.75, "unit": "ng/mL"}, {"measurement": "blood PFHxS concentration", "setting": "[3]; women in Siheung", "result": 1.35, "unit": "ng/mL"}]}
